Laboratory results published in patent US11691992B2 (Anacor Pharmaceuticals, Inc., priority 2017, dated 2023).
Like-named read-outs stand apart in the source and are kept apart here.

Tests used:
Format in all cases: cell-based
[1] = tested on: bloodstream-form trypanosome T. brucei brucei 427 strain; assay: Trypanosoma brucei brucei high-throughput screening assay (resazurin)
Protocol: Example 105. Trypanosoma brucei brucei High-Throughput Screening Assay Procedure
All experiments were conducted with the bloodstream-form trypanosome T. brucei brucei 427 strain obtained from Seattle Biomedical Research Institute (Seattle, Wash.). Parasites were cultured in T-25 vented cap flasks and kept in humidified incubators at 37° C. and 5% CO2. The parasite culture media was complete HMI-9 medium containing 10% FBS, 10% Serum Plus medium and penicillin/streptomycin. To ensure log growth phase, trypanosomes were sub-cultured at appropriate dilutions every 2-3 days. Approximately 50 microliters of log phase cultures were diluted 1:10 in HMI-9 and 10 μL of the diluted culture was removed and counted using a hemocytometer to determine parasite concentration. Parasites were diluted by addition of an appropriate volume of HMI-9 to achieve a final parasite concentration of 2×10^5/mL. Compounds of the invention to be tested were serially diluted in DMSO and 0.5 μL added to 49.5 μL HMI-9 in triplicate 96-well plates using a Biomek NX liquid handler. Parasites from the diluted stock were added to each well (50 μL) using a Multidrop 384 dispenser to give a final concentration of 1.0×10^5/ml parasites in […] for DMSO. Trypanosomes were incubated with compounds for 72 hrs at 37° C. with 5% CO2. Resazurin (20 μL of 12.5 mg/ml stock) from Sigma-Aldrich was added to each well and plates were incubated for an additional 2-4 hrs. Assay plates were read using an EnVision plate reader at an excitation wavelength of 544 nm and emission of 590 nm. Triplicate data points were averaged to generate sigmoidal dose response curve and determine IC50 values using XLfit curve fitting software from IDBS (Guildford, UK).

[2] = tested on: IL3000 T. congolense (drug sensitive) strain; assay: In vitro Alamar Blue 72 h drug sensitivity assay for T. congolense
In short: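 Bloodstream-form trypanosomes in HMI medium with 20% bovine serum, exposed to compound for 69 h at 34 °C, 5% CO2, then resazurin for 3 h more. Fluorescence read at 536/588 nm. IC50 from 11-point sigmoidal dose-response curves, at least three independent runs.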

[3] = tested on: Trypanosoma brucei rhodesiense STIB 900 strain; assay: Trypanosoma brucei rhodesiense STIB 900 screening assay; settings: 72 h
Protocol: Example 114. Trypanosoma brucei rhodesiense STIB 900 Screening Assay Procedure
The Trypanosoma brucei rhodesiense STIB 900 strain was isolated in 1982 from a human patient in Tanzania and after several mouse passages cloned and adapted to axenic culture conditions (Baltz, et al., EMBO Journal 4: 1273-1277 (1985); Thuita, et al., Acta Tropica 108: 6-10 (2008)). Minimum Essential Medium (50 μL) supplemented with 25 mM HEPES, 1 g/L additional glucose, 1% MEM non-essential amino acids (100×), 0.2 mM 2-mercaptoethanol, 1 mM Na-pyruvate and 15% heat inactivated horse serum was added to each well of a 96-well microtiter plate. Serial drug dilutions of seven 3-fold steps covering a range from 90 to 0.123 μg/mL were prepared. Then 10^4 bloodstream forms of T. b. rhodesiense STIB 900 in 50 μL was added to each well and the plate incubated at 37° C. under a 5% CO2 atmosphere for 72 h. 10 μL Alamar Blue (resazurin, 12.5 mg in 100 mL double-distilled water) was then added to each well and incubation continued for a further 2-4 h (Raz, et al., Acta Tropica 68: 139-47 (1997)). Then the plates were read with a Spectramax Gemini XS microplate fluorometer (Molecular Devices Corporation, Sunnyvale, Calif., USA) using an excitation wavelength of 536 nm and an emission wavelength of 588 nm. Data were transferred into the graphic program Softmax Pro (Molecular Devices), which calculated IC50 values.

[4] = tested on: TdTomato-modified T. cruzi (CL strain) in Vero cells; assay: In vitro IC50 measurement of T. cruzi amastigote killing using TdTomato-modified T. cruzi (CL strain); settings: Trypanosoma cruzi, 72 h, fluorescence, read-out: IC50: I Org. amastigote Growth T. cruzi CL TdTomato, 3 d
In short: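 Vero cells were infected with tdTomato-expressing CL-strain parasites and dosed at 5 uM–5 nM. Fluorescence (ex 544/em 612 nm) was read at day 0 and again after 72 h at 37 °C, with day 0 values subtracted. IC50 and IC90 came from nonlinear regression.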

[5] = tested on: bloodstream forms of T. b. rhodesiense STIB 900; assay: T. brucei rhodesiense STIB 900 growth inhibition assay; settings: Trypanosoma brucei, 72 h
In short: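 Bloodstream-form STIB 900 (10^4/well) were cultured in supplemented MEM with 15% horse serum and compound (90 to 0.123 μg/ml, 3-fold steps) for 72 h at 37 °C, 5% CO2. Viability was read by Alamar Blue fluorescence (ex 536/em 588 nm) after a further 2-4 h.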

[6] = tested on: L. infantum MHOM/MA(BE)/67 amastigotes in primary peritoneal mouse macrophages; assay: Leishmania infantum intracellular amastigote assay in mouse macrophages; settings: Macrophage, 120 h
In short: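 Amastigotes harvested from infected hamster spleen infected primary peritoneal mouse macrophages (5×10^5 amastigotes/well, 2 h, 37 °C). Compounds then present 5 d at 37 °C, 5% CO2. Parasite burden counted by microscopy after Giemsa staining, as % of untreated controls; IC50 from sigmoidal variable-slope fit.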

[7] = bloodstream form, 72 hrs incubation, resazurin, read-out: IC50: I Org. Growth T. brucei brucei SBRI 427, 3 d
[8] = Trypanosoma congolense; read-out: inhibition of T. congolense IL-3000 growth at a concentration of 1.0 μM (classes D, E)
[9] = STIB 900 bloodstream forms, Alamar Blue, protocol of Example 114, read-out: Swiss TPH T b rhodesiense IC50
[10] = bloodstream forms, Alamar Blue, protocol of Example 110, read-out: IC50: I Org. Growth T. brucei rhodesiense STIB 900, 3 d
[11] = Trypanosoma congolense; bloodstream form, 69 h + 3 h resazurin, 34° C.; classes A-C; read-out: IC50: I Org. Growth T. congolense IL-3000, 3 d
[12] = amastigotes in primary peritoneal mouse macrophages, 5 d, Giemsa staining, read-out: Inhibition of Organism Growth in Leishmania infantum MHOM/MA/BE/67, 5 d
[13] = read-out: IC50: I Org. Growth T. brucei rhodesiense STIB 900, 3 d [uM]
[14] = 72 h, read-out: IC50: I Org. Growth T. brucei brucei SBRI 427, 3 d [uM]
[15] = read-out: Inhibition of Organism Growth in Leishmania infantum MHOM/MA/BE/67, 5 d [uM]

IC50 [1, 7] [µM] | Structure (SMILES) | IC50 [5, 10] [µM] | IC50 [2, 11] [nM] | IC50 [6, 12] [µM] | also measured
0.151 to 10 | Cn1nc(-c2ccccc2)nc1C(=O)Nc1ccc2c(c1)B(O)OC2 [Example 96, N-(1-hydroxy-1,3-dihydrobenzo[c][1,2]oxaborol-6-yl)-1-methyl-3-phenyl-1H-1,2,4-triazole-5-carboxamide] | – | – | – | inhibition at 1 µM [2, 8]: < 75%
– | O=C(Nc1ccc2c(c1)B(O)OC2)c1cn(-c2cccnc2)nn1 [Example 63, N-(1-hydroxy-1,3-dihydrobenzo[c][1,2]oxaborol-6-yl)-1-(pyridin-3-yl)-1H-1,2,3-triazole-4-carboxamide] | 0.1 to 0.3 | < 100 | 20 to 100 | IC50 [3, 9]: 100 to 250 nM; IC50 [4]: 1100 to 10000 nM
0.075 to 0.15 | O=C(Nc1ccc2c(c1)B(O)OC2)c1nc(-c2ccccc2)n[nH]1 [Example 101, N-(1-hydroxy-1,3-dihydrobenzo[c][1,2]oxaborol-6-yl)-3-phenyl-1H-1,2,4-triazole-5-carboxamide] | – | – | – | inhibition at 1 µM [2, 8]: > 75%
– | Cc1cccc(-n2cc(C(=O)Nc3ccc4c(c3)B(O)OC4)nn2)n1 [Example 57, N-(1-hydroxy-1,3-dihydrobenzo[c][1,2]oxaborol-6-yl)-1-(6-methylpyridin-2-yl)-1H-1,2,3-triazole-4-carboxamide] | < 0.1 | < 100 | < 3 | IC50 [3, 9]: < 100 nM; IC50 [4]: < 600 nM
– | O=C(Nc1ccc2c(c1)B(O)OC2)c1nc(-c2ccccn2)n[nH]1 [Example 94, N-(1-hydroxy-1,3-dihydrobenzo[c][1,2]oxaborol-6-yl)-3-(pyridin-2-yl)-1H-1,2,4-triazole-5-carboxamide] | – | – | – | IC50 [5, 13]: < 0.1 µM; IC50 [1, 14]: < 0.075 µM; inhibition at 1 µM ([2]; Trypanosoma congolense, read-out: inhibition of T. congolense IL-3000 growth at a concentration of 1.0 μM (classes D, E)): > 75%; IC50 [6, 15]: 3 to 19.9 µM
0.075 to 0.15 | Cn1nc(C(=O)Nc2ccc3c(c2)B(O)OC3)nc1-c1ccccc1 [Example 102, N-(1-Hydroxy-1,3-dihydrobenzo[c][1,2]oxaborol-6-yl)-1-methyl-5-phenyl-1H-1,2,4-triazole-3-carboxamide] | < 0.1 | – | < 3 | –
0.151 to 10 | Cn1nc(-c2ccc(F)cc2)nc1C(=O)Nc1ccc2c(c1)B(O)OC2 [Example 97, 3-(4-fluorophenyl)-N-(1-hydroxy-1,3-dihydrobenzo[c][1,2]oxaborol-6-yl)-1-methyl-1H-1,2,4-triazole-5-carboxamide] | – | – | – | inhibition at 1 µM [2, 8]: < 75%
– | O=C(Nc1ccc2c(c1)B(O)OC2)c1nc(-c2ccc(F)cc2)n[nH]1 [Example 99, 3-(4-Fluorophenyl)-N-(1-hydroxy-1,3-dihydrobenzo[c][1,2]oxaborol-6-yl)-1H-1,2,4-triazole-5-carboxamide] | – | – | – | IC50 [5, 13]: 0.1 to 0.3 µM; IC50 [1, 14]: < 0.075 µM; IC50 [6, 15]: < 3 µM
0.075 to 0.15 | Cn1nc(C(=O)Nc2ccc3c(c2)B(O)OC3)nc1-c1ccc(F)cc1 [Example 100, 5-(4-Fluorophenyl)-N-(1-hydroxy-1,3-dihydrobenzo[c][1,2]oxaborol-6-yl)-1-methyl-1H-1,2,4-triazole-3-carboxamide] | – | – | – | –
– | COc1cccc(-n2cc(C(=O)Nc3ccc4c(c3)B(O)OC4)nn2)n1 [Example 64, N-(1-hydroxy-1,3-dihydrobenzo[c][12]oxaborol-6-yl)-1-(6-methoxypyridine-2-yl)-1H-1,2,3-triazole-4-carboxamide] | – | – | – | IC50 ([3]; read-out: Swiss TPH T b rhodesiense IC50): < 100 nM; IC50 [5, 13]: 0.1 to 0.3 µM; IC50 [6, 15]: < 3 µM
< 0.075 | Cn1nc(C(=O)Nc2ccc3c(c2)B(O)OC3)nc1-c1ccccn1 [Example 80, N-(1-hydroxy-1,3-dihydrobenzo[c][1,2]oxaborol-6-yl)-1-methyl-5-(pyridin-2-yl)-1H-1,2,4-triazole-3-carboxamide] | 0.1 to 0.3 | 100 to 300 | < 3 | –
– | Cn1nc(-c2ccccn2)nc1C(=O)Nc1ccc2c(c1)B(O)OC2 [Example 95, N-(1-hydroxy-1,3-dihydrobenzo[c][1,2]oxaborol-6-yl)-1-methyl-3-(pyridine-2-yl)-1H-1,2,4-triazole-5-carboxamide] | – | – | – | IC50 [1, 14]: 0.151 to 10 µM
0.075 to 0.15 | Cc1c(C(=O)Nc2ccc3c(c2)B(O)OC3)nnn1-c1ccc(Cl)cc1 [Example 90, 1-(4-chlorophenyl)-N-(1-hydroxy-1,3-dihydrobenzo[c][1,2]oxaborol-6-yl)-5-methyl-1H-1,2,3-triazole-4-carboxamide] | – | – | – | –
– | O=C(Nc1ccc2c(c1)B(O)OC2)c1nc(-c2cccnc2)n[nH]1 [Example 98, N-(1-hydroxy-1,3-dihydrobenzo[c][1,2]oxaborol-6-yl)-3-(pyridin-3-yl)-1H-1,2,4-triazole-5-carboxamide] | – | – | – | IC50 [1, 14]: 0.151 to 10 µM
– | COc1cccc(-n2nnc(C(=O)Nc3ccc4c(c3)B(O)OC4)c2C)n1 [Example 65, N-(1-hydroxy-1,3-dihydrobenzo[c][1,2]oxaborol-6-yl)-1-(6-methoxypyridin-2-yl)-5-methyl-1H-1,2,3-triazole-4-carboxamide] | < 0.1 | < 100 | < 3 | IC50 [3, 9]: < 100 nM; IC50 [4]: < 600 nM
– | Cc1cccc(-n2nnc(C(=O)Nc3ccc4c(c3)B(O)OC4)c2C)n1 [Example 81, N-(1-hydroxy-1,3-dihydrobenzo[c][1,2]oxaborol-6-yl)-5-methyl-1-(6-methylpyridin-2-yl)-1H-1,2,3-triazole-4-carboxamide] | 0.1 to 0.3 | < 100 | 3 to 19.9 | IC50 [3, 9]: 100 to 250 nM; IC50 [4]: 1100 to 10000 nM
